Test results: PMC5453931, “Cathelicidin-trypsin inhibitor loop conjugate represents a promising antibiotic candidate with protease stability” (Scientific Reports, 2017)
In brackets after ≈: the same amount, converted by molar mass. Where a SMILES comes first, the peptide text is derived from it. Bridges are numbered along the chain shown (N, C = ends).

How the values were obtained:
08030209 = test: microbe, parasite or virus in culture; type: cell-based, Arcyria cinerea; conditions: Fungi; two-fold broth microdilution, 37 °C, 18 h; mean of three independent experiments in duplicates
Procedure: (§1) A two-fold broth microdilution method described in our previous paper was used to determine the antimicrobial activities of parental and hybrid peptides. More than 30 strains including Gram-negative bacteria, Gram-positive bacteria and fungi were used in the current assay, in which the standard strains were stored in our lab and the clinical strains were collected from local hospitals. Briefly, bacteria were incubated in Mueller-Hinton broth (MH broth) at 37 °C to exponential phase and diluted to 10^6 CFU/mL. A serial dilution of peptide sample were prepared in 96-well microtiter plates (50 μL) and mixed with equal volume of microbial inoculums (50 μL). The plate was slowly shaken in the microbial incubator, and measured at A595 after incubation at 37 °C for 18 h. The minimal concentrations at which no microbial growth occurred were recorded as MIC (minimal inhibitory concentration) values. The traditional antibiotic ampicillin was used as positive control. The results are shown in an average of the MICs obtained from three independent experiments.

E. coli 08040726 [1] = test: MIC, two-fold broth microdilution (second listing of the strain number); type: cell-based; conditions: Gram-negative, MH broth, 37 °C, 18 h, mean of three independent experiments in duplicates
Procedure: as §1

E. coli 08040726 [2] = type: cell-based; conditions: 08040726, 18 h
Procedure: as §1

trypsin = test: Trypsin inhibition assay (NBLAN hydrolysis, Dixon method); type: biochemical; conditions: 50 mM Tris–HCl pH 7.8, trypsin 0.1 mg/mL, 5 min pre-incubation at 37 °C, substrate NBLAN 48, 96, 192 μg/mL, 405 nm
Procedure: The inhibition effect on the hydrolysis of synthetic chromogenic substrate by trypsin was assayed in 50 mM Tris–HCl, pH 7.8 buffer at room temperature. The trypsin of final concentration of 0.1 mg/mL and different amounts of the hybrid peptide (final concentrations ranging from 0 to 0.16 μg/mL) were pre-incubated for 5 min at 37 °C. N-α-Benzoyl-DL-arginine p-nitroanilide hydrochloride (NBLAN) was used as a substrate for trypsin. The reaction was initiated by the addition of NBLAN with a final concentration of 48, 96 and 192 μg/mL, respectively. The formation of yellow product, p-nitroaniline was monitored continuously at 405 nm[61]. The inhibition constant Ki of the hybrid peptides were determined according to the method of Dixon (1953)[62].

[3] = tested on: Staphylococcus epidermidis; test: MIC, two-fold broth microdilution; type: cell-based; conditions: Gram-positive; two-fold broth microdilution, MH broth, 37 °C, 18 h; mean of three independent experiments in duplicates
Method in brief: (§2)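 Growth at A595 after 18 h at 37 °C defines the MIC, taken as the minimal peptide concentration giving no microbial growth. Organisms were grown to exponential phase in Mueller-Hinton broth and diluted to 10^6 CFU/mL prior to combining with an equal volume of peptide dilutions.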

Vibrio Parahaemolyticus = test: MIC, two-fold broth microdilution; type: cell-based; conditions: Aquatic pathogenic bacteria; two-fold broth microdilution, 37 °C, 18 h; mean of three independent experiments in duplicates
Method in brief: as §2

E. Coli 08032813 = test: MIC, two-fold broth microdilution; type: cell-based; conditions: Gram-negative; two-fold broth microdilution, MH broth, 37 °C, 18 h; mean of three independent experiments in duplicates
Method in brief: as §2

S. Maltophilia 090223 = test: microbe, parasite or virus in culture; type: cell-based; conditions: 090223, 18 h
Procedure: as §1

Edwardsiella tarda = test: microbe, parasite or virus in culture; type: cell-based; conditions: 18 h
Procedure: as §1

S. Aureus 08032810 = test: microbe, parasite or virus in culture; type: cell-based; conditions: Gram-positive; two-fold broth microdilution, MH broth, 37 °C, 18 h; mean of three independent experiments in duplicates
Procedure: as §1

P. Aeruginosa 08021015 = test: microbe, parasite or virus in culture; type: cell-based; conditions: 08021015, 18 h
Procedure: as §1

S. Aureus 08032615 = test: microbe, parasite or virus in culture; type: cell-based; conditions: 08032615, 18 h
Procedure: as §1

Vibrio brasiiensis = test: microbe, parasite or virus in culture; type: cell-based; conditions: 18 h
Procedure: as §1

Candida glabrata 08A802 = test: microbe, parasite or virus in culture; type: cell-based; conditions: 08A802, 18 h
Procedure: as §1

E. Coli 08032823 = test: microbe, parasite or virus in culture; type: cell-based; conditions: 08032823, 18 h
Procedure: as §1

[4] = tested on: Enterococcus faecium 08052315; test: microbe, parasite or virus in culture; type: cell-based; conditions: 08052315, 18 h
Procedure: as §1

K. Pneumoniae 08031012 = test: microbe, parasite or virus in culture; type: cell-based; conditions: Gram-negative; two-fold broth microdilution, MH broth, 37 °C, 18 h; mean of three independent experiments in duplicates
Procedure: as §1

Vibrio harveyi = test: microbe, parasite or virus in culture; type: cell-based; conditions: 18 h
Procedure: as §1

Vibrio cholerae = test: microbe, parasite or virus in culture; type: cell-based; conditions: 18 h
Procedure: as §1

[5] = tested on: Escherichia coli ATCC25922; test: microbe, parasite or virus in culture; type: cell-based; conditions: ATCC25922, 18 h
Procedure: as §1

Aeromonas sobria = test: microbe, parasite or virus in culture; type: cell-based; conditions: Aquatic pathogenic bacteria; two-fold broth microdilution, 37 °C, 18 h; mean of three independent experiments in duplicates
Procedure: as §1

K. Pneumoniae 08040202 = test: microbe, parasite or virus in culture; type: cell-based; conditions: Gram-negative; two-fold broth microdilution, MH broth, 37 °C, 18 h; mean of three independent experiments in duplicates
Procedure: as §1

S. Aureus 08032706 = test: microbe, parasite or virus in culture; type: cell-based; conditions: Gram-positive; two-fold broth microdilution, MH broth, 37 °C, 18 h; mean of three independent experiments in duplicates
Procedure: as §1

Proteus mirabilis 1376 = test: microbe, parasite or virus in culture; type: cell-based; conditions: 1376, 18 h
Procedure: as §1

[6] = tested on: Nocardia asteroides 08052412; test: microbe, parasite or virus in culture; type: cell-based; conditions: 18 h
Procedure: as §1

Aeromonas veronii = test: microbe, parasite or virus in culture; type: cell-based; conditions: Aquatic pathogenic bacteria; two-fold broth microdilution, 37 °C, 18 h; mean of three independent experiments in duplicates
Procedure: as §1

[7] = tested on: Bacillus subtilis 08042313; test: microbe, parasite or virus in culture; type: cell-based; conditions: 08042313, 18 h
Procedure: as §1

[8] = tested on: Candida albicans 08030102; test: microbe, parasite or virus in culture; type: cell-based; conditions: 08030102, 18 h
Procedure: as §1

Question: Which “MIC Arcyria cinerea 08030209” value 08030209 does the source give for `CC[C@H](C)[C@@H]1NC(=O)[C@H](CO)NC(=O)[C@H](CCCCN)NC(=O)[C@H]([C@@H](C)O)NC(=O)[C@H](Cc2c[nH]c3ccccc23)NC(=O)[C@@H](NC(=O)[C@H](Cc2ccccc2)NC(=O)[C@H](CCCCN)NC(=O)[C@H](CCCCN)NC(=O)[C@@H](NC(=O)[C@H](C)NC(=O)[C@H](CCCNC(=N)N)NC(=O)[C@H](CCCNC(=N)N)NC(=O)[C@@H](NC(=O)[C@H](CO)NC(=O)[C@H](CCCCN)NC(=O)[C@H](CC(C)C)NC(=O)[C@H](CC(C)C)NC(=O)[C@H](CCCNC(=N)N)NC(=O)[C@H](CCCCN)NC(=O)[C@H](Cc2ccccc2)NC(=O)[C@H](Cc2ccccc2)NC(=O)[C@@H](N)CCCCN)C(C)C)C(C)C)CSSC[C@@H](C(=O)O)NC(=O)[C@@H]2CCCN2C(=O)[C@H](CCCCN)NC(=O)[C@@H]2CCCN2C(=O)[C@@H]2CCCN2C1=O` [H3TI] (H-KFFKRLLKSVRRAVKKFCWTKSIPPKPC-OH; disulfide 18-28) here?
Answer: — (no detectable activity in MIC assay in dose of 200 µg/mL or in trypsin inhibition assay at concentration of 160 μg/mL)

Question: And the “MIC E. Coli 08040726 (second line with this strain number)” value (E. coli 08040726 [1])?
Answer: — (no detectable activity in MIC assay in dose of 200 µg/mL or in trypsin inhibition assay at concentration of 160 μg/mL)

Question: What about the “MIC E. coli 08040726” value (E. coli 08040726 [2]) of the same compound?
Answer: 9.38 µg/mL (≈ 2.77 µM)

Question: What about the Ki (trypsin) of the same compound?
Answer: 5.5 µM

Question: And the “MIC Staphylococcus epidermidis” value [3]?
Answer: — (no detectable activity in MIC assay in dose of 200 µg/mL or in trypsin inhibition assay at concentration of 160 μg/mL)

Question: And the “MIC Vibrio Parahaemolyticus” value (Vibrio Parahaemolyticus)?
Answer: 4.69 µg/mL (≈ 1.38 µM)

Question: What about the “MIC E. Coli 08032813” value (E. Coli 08032813) of the same compound?
Answer: — (no detectable activity in MIC assay in dose of 200 µg/mL or in trypsin inhibition assay at concentration of 160 μg/mL)

Question: What about the “MIC S. Maltophilia 090223” value (S. Maltophilia 090223) of the same compound?
Answer: 18.75 µg/mL (≈ 5.53 µM)

Question: What about the “MIC Edwardsiella tarda” value (Edwardsiella tarda) of the same compound?
Answer: 37.5 µg/mL (≈ 11.1 µM)

Question: And the “MIC S. Aureus 08032810” value (S. Aureus 08032810)?
Answer: — (no detectable activity in MIC assay in dose of 200 µg/mL or in trypsin inhibition assay at concentration of 160 μg/mL)

Question: What about the “MIC P. Aeruginosa 08021015” value (P. Aeruginosa 08021015) of the same compound?
Answer: 37.5 µg/mL (≈ 11.1 µM)

Question: What about the “MIC S. Aureus 08032615” value (S. Aureus 08032615) of the same compound?
Answer: 37.5 µg/mL (≈ 11.1 µM)

Question: What about the “MIC Vibrio brasiiensis” value (Vibrio brasiiensis) of the same compound?
Answer: 18.75 µg/mL (≈ 5.53 µM)

Question: And the “MIC Candida glabrata 08A802” value (Candida glabrata 08A802)?
Answer: 4.69 µg/mL (≈ 1.38 µM)

Question: What about the “MIC E. Coli 08032823” value (E. Coli 08032823) of the same compound?
Answer: 37.5 µg/mL (≈ 11.1 µM)

Question: And the “MIC Enterococcus faecium 08052315” value [4]?
Answer: 9.38 µg/mL (≈ 2.77 µM)

Question: What about the “MIC K. Pneumoniae 08031012” value (K. Pneumoniae 08031012) of the same compound?
Answer: — (no detectable activity in MIC assay in dose of 200 µg/mL or in trypsin inhibition assay at concentration of 160 μg/mL)

Question: What about the “MIC Vibrio harveyi” value (Vibrio harveyi) of the same compound?
Answer: 37.5 µg/mL (≈ 11.1 µM)

Question: What about the “MIC Vibrio cholerae” value (Vibrio cholerae) of the same compound?
Answer: 75 µg/mL (≈ 22.1 µM)

Question: What about the “MIC Escherichia coli ATCC25922” value [5] of the same compound?
Answer: 37.5 µg/mL (≈ 11.1 µM)

Question: What about the “MIC Aeromonas sobria” value (Aeromonas sobria) of the same compound?
Answer: — (no detectable activity in MIC assay in dose of 200 µg/mL or in trypsin inhibition assay at concentration of 160 μg/mL)

Question: And the “MIC K. Pneumoniae 08040202” value (K. Pneumoniae 08040202)?
Answer: — (no detectable activity in MIC assay in dose of 200 µg/mL or in trypsin inhibition assay at concentration of 160 μg/mL)

Question: And the “MIC S. Aureus 08032706” value (S. Aureus 08032706)?
Answer: — (no detectable activity in MIC assay in dose of 200 µg/mL or in trypsin inhibition assay at concentration of 160 μg/mL)

Question: And the “MIC Proteus mirabilis 1376” value (Proteus mirabilis 1376)?
Answer: 37.5 µg/mL (≈ 11.1 µM)

Question: What about the “MIC Nocardia asteroides 08052412” value [6] of the same compound?
Answer: 18.75 µg/mL (≈ 5.53 µM)

Question: And the “MIC Aeromonas veronii” value (Aeromonas veronii)?
Answer: — (no detectable activity in MIC assay in dose of 200 µg/mL or in trypsin inhibition assay at concentration of 160 μg/mL)

Question: And the “MIC Bacillus subtilis 08042313” value [7]?
Answer: 9.38 µg/mL (≈ 2.77 µM)

Question: What about the “MIC Candida albicans 08030102” value [8] of the same compound?
Answer: 4.69 µg/mL (≈ 1.38 µM)
